Assay results published in patent publication US11667602B2, “Compounds and their use” (AstraZeneca AB, priority 2020, dated 2023).
Converted amounts (≈) assume the structure as drawn. Where two headings read alike, the source gives them in different places.

What was measured:
[1] = Human Plasma Protein Binding (Test B); format: in vitro ADME; conditions: fraction unbound (fu)
Method in brief: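 Human plasma protein binding run per the published Wernevik et al. (2020) integrated DMPK panel protocol. Values are fraction unbound (fu, % free); repeat runs averaged arithmetically.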

[2] = Human Hepatocyte Stability (Test D); format: in vitro ADME; conditions: geometric mean if run multiple times; for hepatocyte CLint at 1 µM: cryopreserved pooled human hepatocytes (LiverPool 10-Donor)
Method in brief: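 Pooled 10-donor cryopreserved human hepatocytes (≥80% viable) in L-15 medium at 0.25×10^6 cells per 0.25 mL well. Compound added from 100 μM acetonitrile solution; incubated at 37 °C with shaking, acetonitrile-quenched, LC-MS analysed. Clint (μL/min/10^6 cells) from ln % parent vs time slope; geometric mean of repeat runs.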

[3] = Solubility (Test F); format: physicochemical; conditions: arithmetic mean if run multiple times
Method: The assay was conducted according to the Solubility Assay described in pages 164-167 of Wernevik, J. et al., “A Fully Integrated Assay Panel for Early Drug Metabolism and Pharmacokinetics Profiling”, Assay and Drug Development Technologies, 2020, 18(4), 157-179. Data are reported in Table 36 as solubility ([…]. Where the assay was run multiple times for the same compound, the arithmetic mean is reported.

[4] = Human Liver Microsomal Stability (Test C); format: in vitro ADME
Method in brief: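 Human liver microsome incubation per the Wernevik et al. integrated DMPK panel protocol. Intrinsic clearance reported as CLint in μl/min/mg protein, averaged arithmetically over repeat runs.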

[5] = target: T1, human RXFP1 (Homo sapiens, UniProt Q9HBX9); assay: RXFP1 Hu cAMP (Test A); format: cell-based; parameters: expressed in transfected cells; host or cells: Jump-In T-REx CHO-K1 cells (ThermoFisher), induced with 10 ng/ml doxycycline for 24 h
T1 sequence (Q9HBX9 1-757): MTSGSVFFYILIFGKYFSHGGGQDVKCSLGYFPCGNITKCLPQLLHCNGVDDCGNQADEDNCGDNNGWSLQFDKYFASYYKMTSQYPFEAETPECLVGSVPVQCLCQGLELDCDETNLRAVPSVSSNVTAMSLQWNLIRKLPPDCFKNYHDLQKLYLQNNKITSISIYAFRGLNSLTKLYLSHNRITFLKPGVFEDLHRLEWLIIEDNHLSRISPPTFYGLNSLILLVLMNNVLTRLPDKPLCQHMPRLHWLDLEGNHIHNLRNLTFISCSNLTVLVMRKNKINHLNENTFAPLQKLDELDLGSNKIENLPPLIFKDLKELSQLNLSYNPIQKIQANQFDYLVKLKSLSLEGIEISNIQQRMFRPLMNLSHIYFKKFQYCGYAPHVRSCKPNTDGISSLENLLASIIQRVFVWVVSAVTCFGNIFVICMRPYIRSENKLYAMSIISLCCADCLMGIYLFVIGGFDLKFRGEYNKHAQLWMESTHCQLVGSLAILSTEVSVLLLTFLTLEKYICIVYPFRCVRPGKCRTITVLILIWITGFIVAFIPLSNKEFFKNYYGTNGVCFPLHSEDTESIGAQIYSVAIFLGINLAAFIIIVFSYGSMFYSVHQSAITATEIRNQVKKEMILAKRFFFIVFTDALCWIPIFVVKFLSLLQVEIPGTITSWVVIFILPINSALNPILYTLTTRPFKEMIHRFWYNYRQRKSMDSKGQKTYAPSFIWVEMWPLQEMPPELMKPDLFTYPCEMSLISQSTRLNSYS
Method in brief: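 Cells: CHO-K1 stably carrying human RXFP1, expressed after 24 h 10 ng/ml doxycycline; 0.5 mM IBMX final, HTRF detection after 2 h at room temperature.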

[6] = Rat Hepatocyte Stability (Test E); format: in vitro ADME; conditions: geometric mean if run multiple times
Method in brief: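 Run per the published AstraZeneca-type rat hepatocyte stability protocol (Wernevik et al. panel). Values are mean intrinsic clearance, Clint in μl/min/10^6 cells; geometric mean used for repeated runs.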

[7] = RXFP1 Hu cAMP, read-out: Test A EC50

SMILES | Test B Human Plasma Protein Binding (% free) [1] [% free] | hepatocyte CLint at 1 µM ([2]; human) [µL/min/1e6 cells] | solubility [3] [µM] | microsomal CLint ([4]; human, liver microsomes) [µL/min/mg] | Test A Sinf ([5]; RXFP1 Hu cAMP) [%] | EC50 [5, 7] [nM] | hepatocyte CLint ([6]; rat, hepatocytes) [µL/min/1e6 cells] | Test D Human Hepatocyte Stability Clint ([2]; human hepatocytes) [μL/min/10^6 cells] | Test C Human Liver Microsomal Stability Clint ([4]; human liver microsomes) [µL/min/mg] | Test E Rat Hepatocyte Stability Clint ([6]; rat hepatocytes) [μL/min/10^6 cells] | EC50 ([5]; Test A EC50, RXFP1 Hu cAMP) [nM] | hepatocyte CLint at 1 µM [2] [µL/min/1e6 cells] | microsomal CLint ([4]; human liver microsomes) [µL/min/mg] | hepatocyte CLint ([6]; rat hepatocytes) [µL/min/1e6 cells]
COc1cc(-c2cc(C(=O)N[C@H]3[C@@H](C(=O)Nc4cccc(S(=O)(=O)C(F)(F)F)c4)[C@@H]4C=C[C@H]3C4)c(OC)cc2F)ccc1C(=O)O (racemic) [Example 226, rac-2′-Fluoro-3,4′-dimethoxy-5′-(((1R,2R,3S,4S)-3-((3-((trifluoromethyl)sulfonyl)phenyl)carbamoyl)bicyclo[2.2.1]hept-5-en-2-yl)carbamoyl)-[1,1′-biphenyl]-4-carboxylic acid] | 0.62 | 11 | 870 (≈ 576 µg/mL) | 12 | 105 | 300 | 16 | – | – | – | – | – | – | –
COc1cc(F)c(O[C@H]2CC[C@@](C)(C(=O)O)CC2)cc1C(=O)N[C@H]1C[C@@H](OC)C[C@H]1C(=O)Nc1cccc(S(=O)(=O)C(F)(F)F)c1 (stereo in doubt) [Example 523, (1R,4s)-4-(2-fluoro-4-methoxy-5-(((1S*,2R*,4S*)-4-methoxy-2-((3-((trifluoromethyl)sulfonyl)phenyl)carbamoyl)cyclopentyl)carbamoyl)phenoxy)-1-methylcyclohexane-1-carboxylic acid] | 4 | – | 920 (≈ 621 µg/mL) | – | 95 | 270 | – | 49 | >300 | 34 | – | – | – | –
CC1(CNC(=O)[C@H]2[C@@H]3CC[C@@H](C3)[C@H]2NC(=O)c2cc(O[C@H]3CC[C@@](C)(C(=O)O)CC3)c(C#N)cc2F)CCC1 [Example 401] | 2.7 | 5.4 | 1000 (≈ 540 µg/mL) | 16 | 115 | – | 17 | – | – | – | 49 | – | – | –
COc1cc(F)c(-c2ccc(CCC(=O)O)nc2)cc1C(=O)N[C@@H]1[C@H]2CC[C@H](C2)[C@@H]1C(=O)Nc1cccc(S(=O)(=O)C(F)(F)F)c1 [Example 258, 3-(5-(2-Fluoro-4-methoxy-5-(((1S,2R,3S,4R)-3-((3-((trifluoromethyl)sulfonyl)phenyl)carbamoyl)bicyclo[2.2.1]heptan-2-yl)carbamoyl)phenyl)pyridin-2-yl)propanoic acid] | 1.7 | 30 | > 1000 | 65 | 106 | 120 | 35 | – | – | – | – | – | – | –
COc1cc(F)c(-c2cnn(CCC(=O)O)c2)cc1C(=O)N[C@@H]1[C@H]2CC[C@H](C2)[C@@H]1C(=O)Nc1cccc(S(=O)(=O)C(F)(F)F)c1 [Example 255] | 2 | 13 | 1000 (≈ 653 µg/mL) | 26 | 101 | 550 | 12 | – | – | – | – | – | – | –
COc1cc(F)c(O[C@H]2CC[C@@](C)(C(=O)O)CC2)cc1C(=O)N[C@@H]1[C@H](O)CC[C@@H]1C(=O)Nc1cccc(S(=O)(=O)C(F)(F)F)c1 (racemic) [Example 396, (1R,4s)-4-(2-Fluoro-5-(((1SR,2RS,5SR)-2-hydroxy-5-((3-((trifluoromethyl)sulfonyl)phenyl)carbamoyl)cyclopentyl)carbamoyl)-4-methoxyphenoxy)-1-methylcyclohexane-1-carboxylic acid] | 5 | 16 | 21 (≈ 13.9 µg/mL) | 47 | 91 | 640 | 16 | – | – | – | – | – | – | –
CCC(C)(C)CNC(=O)[C@H]1CCC[C@H]1NC(=O)c1cc(O[C@H]2CC[C@@](C)(C(=O)O)CC2)c(F)cc1OC [Example 58, (1S,4s)-4-(5-(((1R,2S)-2-((2,2-Dimethylbutyl)carbamoyl)cyclopentyl)carbamoyl)-2-fluoro-4-methoxyphenoxy)-1-methylcyclohexane-1-carboxylic acid] | 7 | 1.9 | > 1000 | 6.5 | 99 | 260 | 19 | – | – | – | – | – | – | –
COc1cc(C#N)c(OC2CCC(C)(C(=O)O)CC2)cc1C(=O)NC1C(C(=O)NCC2(C)CCC2)C2CCC1N2CCC(F)(F)F (single isomer, unassigned) [Example 536, (1R,4s)-4-(2-Cyano-4-methoxy-5-(((1S*,2S*,3R*,4R*)-3-(((1-methylcyclobutyl)methyl)carbamoyl)-7-(3,3,3-trifluoropropyl)-7-azabicyclo[2.2.1]heptan-2-yl)carbamoyl)phenoxy)-1-methylcyclohexane-1-carboxylic acid] | 3.3 | – | 420 (≈ 272 µg/mL) | – | 97 | – | – | – | – | – | 5.1 | 130 | 250 | 43
COc1cc(F)c(-c2ncc(CCC(=O)O)s2)cc1C(=O)N[C@@H]1[C@H]2CC[C@H](C2)[C@@H]1C(=O)Nc1cccc(S(=O)(=O)C(F)(F)F)c1 [Example 243] | 2.2 | 26 | 900 (≈ 603 µg/mL) | 58 | 96 | 99 | 110 | – | – | – | – | – | – | –
COc1cc(F)c(-c2cccc(C(=O)O)c2)cc1C(=O)N[C@H]1[C@@H](C(=O)Nc2cccc(S(=O)(=O)C(F)(F)F)c2)[C@@H]2C=C[C@H]1C2 (single isomer, unassigned) [Example 554] | <0.30 | 5.4 | 700 (≈ 443 µg/mL) | < 3 | 103 | – | 18 | – | – | – | – | – | – | –
CC1(CNC(=O)[C@H]2[C@@H]3CC[C@@H](C3)[C@H]2NC(=O)c2cc(O[C@H]3CC[C@@](C)(C(=O)O)CC3)c(Cl)cc2F)CCC1 [Example 408] | 0.87 | 6.5 | 670 (≈ 368 µg/mL) | 32 | 106 | 24 | 20 | – | – | – | – | – | – | –
